Bridge positions count the residues as written; N and C are the ends. Square brackets hold non-standard residues; d marks the D form. Peptide text beside a SMILES is read from it. Abu = CC[C@H](N)C(=O)O

Sequence of porcine pancreatic elastase (P00772 27-266): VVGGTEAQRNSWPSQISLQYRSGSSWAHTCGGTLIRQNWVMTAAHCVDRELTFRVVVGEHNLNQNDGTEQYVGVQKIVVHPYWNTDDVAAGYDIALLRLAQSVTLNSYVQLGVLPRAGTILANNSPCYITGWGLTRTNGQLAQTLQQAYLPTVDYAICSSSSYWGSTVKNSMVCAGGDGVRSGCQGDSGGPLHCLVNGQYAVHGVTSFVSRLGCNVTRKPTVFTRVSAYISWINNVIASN

The target in one experiment is porcine pancreatic elastase (Sus scrofa, UniProt P00772). As to the kind of experiment: Elastase inhibitory activity of peptides (AAApNA hydrolysis; IC50, Ki, residual activity). It is filed as biochemical. Particulars: elastase 0.5 μM, AAApNA 1 mM. The method, then:
The inhibition constants of various synthetic active peptide inhibitors (molecular scaffolds) against seine proteases were measured. The substrates N-succinyl-Ala-Ala-Pro-Phe-p-nitroaniline (AAPFpNA), Nα—Benzoyl-L-arginine-4-nitroaniline hydrochloride (BApNA) and N-succinyl-[…] (AAApNA) are used in competitive binding reaction to determine the inhibitory activities against α-chymotrypsin, bovine trypsin, and porcine pancreatic elastase, respectively. Experiments for α-chymotrypsin and bovine trypsin inhibition were measured in 20 mM CaCl2, 50 mM Tris-HCl buffer (pH 7.8), and that for porcine elastase inhibition was measured in 50 mM Tris-HCl buffer (pH 8.0). The concentration of the peptide was measured using optical density (OD) at 280 nm. The Michaelis constant (Km) of the enzyme hydrolysis substrate is calculated from the initial rate of substrate hydrolysis at 405 nm. The absorbance value of the substrate was measured at 405 nm after complete hydrolysis. All data were processed using nonlinear regression.
• (1) Added a total 198 μL of reaction buffer (20 mM CaCl2, 50 mM Tris-HCl (pH 8.0)) into the 96 well plate, followed by preheating at 37° C. for 15 min. Then added 2 μL of different concentrations of substrates (pNA, dissolved in DMSO), and mixed by centrifugation at 500 rpm for 1 min. Finally, the plate was incubated at 37° C. for 30 min, and the absorbance value at 405 nm was measured. In the 200 μL of reaction system, the final concentrations of pNA were 0, 0.025, 0.05, 0.075, 0.1, 0.125, 0.15, 0.175, and 0.2 mM, respectively. Make three repetitions for each concentration and plot the OD405 m value with pNA concentration to obtain the standard curve. • (2) Added a total 190 μL of reaction buffer (20 mM CaCl2, 50 mM Tris-HCl (pH 8.0)) and 8 μL of 4.375 μM elastase into the 96 well plate, followed by preheating at 37° C. for 5 min. Then added 2 μL of different concentrations of substrates (AAApNA, dissolved in DMSO), and mixed by centrifugation at 500 rpm for 1 min. Finally, the plate was incubated at 37° C. for 30 min, and the absorbance value at 405 nm was measured. In the 200 μL of reaction system, the final concentrations of AAApNA were 0, 0.125, 0.166, 0.2, 0.25, 0.33, 0.6, 0.75, and 1.25 mM, respectively. Make three repetitions for each concentration and plot the OD405 nm value with time to obtain the corresponding curve. Divide the slope of the curve by the slope of the standard curve and the enzyme concentration to obtain the initial velocity V0 (mM/(min*mM protein). Plot the initial velocity V0 with the concentration of substrate AAApNA using Prism software, and the Michaelis constant Km value of elastase hydrolyzing AAApNA was obtained.
• (1) Added a total 190 μL of different concentrations of peptides (ECs) against elastase and reaction buffer (20 mM CaCl2, 50 mM Tris-HCl buffer (pH 8.0)) into the pre-cold 96 well plate, followed by preheating at 37° C. for 5 min and centrifugated at 500 rpm for 1 min and allowed to stand for 4 minutes. Then added 8 μL of 12.5 μM elastase and incubated at 37° C. for 10 min and centrifugated at 500 rpm for 1 min and allowed to stand for 9 minutes. Finally, added 2 μL of 100 mM AAApNA, and mixed by centrifugation at 500 rpm for 1 min. The plate was incubated at 37° C. for 60 min, and the absorbance value at 405 nm was measured. Three repetitions were made, and only reaction buffer and substrate were added in the blank control as the minimum absorption value (Min OD405 nm); Only reaction buffer, enzyme and substrate were added in the negative control as the maximum absorption value (Max OD405 nm). • (2) In the 200 μL of reaction system, the final concentrations of elastase and AAApNA were 0.5 μM and 1 mM, respectively. • (3) Data statistics
Residual activity of enzyme (%)=(1−(Max OD405 nm−Sample OD405 nm)/(Max OD405 nm−Min OD405 nm))*100 […]
`CC[C@H](C)[C@@H]1NC(=O)[C@H](CO)NC(=O)[C@H](C)NC(=O)[C@H]([C@@H](C)O)NC(=O)[C@H](C)NC(=O)[C@H](Cc2ccc(O)cc2)NC(=O)CNC(=O)[C@@H](N)CSSC[C@@H](C(=O)N[C@@H](Cc2ccc(O)cc2)C(=O)O)NC(=O)[C@H](CCC(N)=O)NC(=O)[C@@H]2CCCN2C(=O)[C@@H]2CCCN2C1=O` [EC15] (H-CGYATASIPPQCY-OH; disulfide 1-12; N-terminus and C-terminus assumed) gave an IC50 above 50 µM.

In turn, `CC[C@@H]1NC(=O)[C@H]([C@@H](C)CC)NC(=O)CNC(=O)[C@@H](N)CSSC[C@@H](C(=O)N[C@@H](CCC(N)=O)C(=O)O)NC(=O)[C@H]([C@@H](C)CC)NC(=O)[C@@H]2CCCN2C(=O)[C@@H]2CCCN2C(=O)[C@H]([C@@H](C)CC)NC(=O)[C@H](CO)NC(=O)[C@H](C)NC(=O)[C@H]([C@@H](C)O)NC1=O` [EC31] (H-CGI[Abu]TASIPPICQ-OH; disulfide 1-12) gave a half-maximal inhibitory concentration (IC50) above 50 µM.

`CC[C@H](C)[C@@H]1NC(=O)[C@H](CO)NC(=O)[C@H](C)NC(=O)[C@H]([C@@H](C)O)NC(=O)[C@@H](NC(=O)[C@@H](N)CC(C)C)CSSC[C@@H](C(=O)N[C@@H](CCCNC(=N)N)C(=O)O)NC(=O)[C@H](CCC(N)=O)NC(=O)[C@@H]2CCCN2C(=O)[C@@H]2CCCN2C1=O` [EC20] (H-LCTASIPPQCR-OH; disulfide 2-10; N-terminus and C-terminus assumed) showed an IC50 above 50 µM.

As to `CC[C@H](C)[C@@H]1NC(=O)[C@@H]2CCCN2C(=O)[C@@H]2CCCN2C(=O)[C@H]([C@@H](C)CC)NC(=O)[C@H](CO)NC(=O)[C@H](C)NC(=O)[C@H]([C@@H](C)O)NC(=O)[C@H](C)NC(=O)[C@H](CC(C)C)NC(=O)CNC(=O)[C@@H](N)CSSC[C@@H](C(=O)N[C@@H](CCC(N)=O)C(=O)O)NC1=O` [EC6] (H-CGLATASIPPICQ-OH; disulfide 1-12; N-terminus and C-terminus assumed), the IC50 is above 50 µM.

`CC[C@H](C)[C@@H]1NC(=O)CNC(=O)[C@@H](N)CSSC[C@@H](C(=O)N[C@@H](CCC(N)=O)C(=O)O)NC(=O)[C@H]([C@@H](C)CC)NC(=O)[C@@H]2CCCN2C(=O)[C@@H]2CCCN2C(=O)[C@H]([C@@H](C)CC)NC(=O)[C@H](CO)NC(=O)[C@H](C)NC(=O)[C@H]([C@@H](C)O)NC(=O)[C@H](Cc2c[nH]cn2)NC1=O` [EC40] (H-CGIHTASIPPICQ-OH; disulfide 1-12) showed an IC50 above 50 µM.

On to `CC[C@H](C)[C@@H]1NC(=O)CNC(=O)[C@@H](N)CSSC[C@@H](C(=O)N[C@@H](CCC(N)=O)C(=O)O)NC(=O)[C@H]([C@@H](C)CC)NC(=O)[C@@H]2CCCN2C(=O)[C@@H]2CCCN2C(=O)[C@H]([C@@H](C)CC)NC(=O)[C@H](CO)NC(=O)[C@H](C)NC(=O)[C@H]([C@@H](C)O)NC(=O)[C@H](CCC(N)=O)NC1=O` [EC39] (H-CGIQTASIPPICQ-OH; disulfide 1-12), for which the IC50 was above 50 µM.

`CC[C@H](C)[C@@H]1NC(=O)CNC(=O)[C@@H](N)CSSC[C@@H](C(=O)N[C@@H](CCC(N)=O)C(=O)O)NC(=O)[C@H]([C@@H](C)CC)NC(=O)[C@@H]2CCCN2C(=O)[C@@H]2CCCN2C(=O)[C@H]([C@@H](C)CC)NC(=O)[C@H](CO)NC(=O)[C@H](C)NC(=O)[C@H]([C@@H](C)O)NC(=O)[C@H](CC(N)=O)NC1=O` [EC38] (H-CGINTASIPPICQ-OH; disulfide 1-12; C-terminus assumed) gave an IC50 of 1 µM.

The same experiment, now with this note: read-out: Ki.
As for `CC[C@H](C)[C@@H]1NC(=O)[C@H](CO)NC(=O)[C@H](C)NC(=O)[C@H]([C@@H](C)O)NC(=O)[C@@H](NC(=O)[C@H](CC(C)C)NC(=O)CNC(=O)CNC(=O)[C@H](CC(=O)O)NC(=O)[C@H](CCC(=O)O)NC(=O)[C@@H](NC(=O)[C@H](C)NC(=O)[C@H](CC(N)=O)NC(=O)CNC(=O)[C@H](CC(N)=O)NC(=O)[C@@H](N)CO)C(C)C)CSSC[C@@H](C(=O)N[C@@H](Cc2ccc(O)cc2)C(=O)O)NC(=O)[C@H](CCC(N)=O)NC(=O)[C@@H]2CCCN2C(=O)[C@@H]2CCCN2C1=O` [EC50] (H-SNGNAVEDGGLCTASIPPQCY-OH; disulfide 12-20; N-terminus and C-terminus assumed), the Ki was 0.28 µM.

By IC50 is commonly meant the point on the concentration scale where inhibition reaches its midpoint. Higher therefore signals weaker potency. Usually Ki stands for a dissociation constant, usually derived from enzyme kinetics or from competition with a known ligand.

These data come from patent publication US20230416329A1, “A PEPTIDE WITH DISULFIDE BONDS AND INHIBITORY ACTIVITY AGAINST SERINE PROTEASES, DERIVED HYBRID PEPTIDES THEREOF, AND USES THEREOF” (INSTITUTE OF MATERIA MEDICA , CHINESE ACADEMY OF MEDICAL …, priority 2020, published 2023).
